Results from patent US6110962A, “11-aryl-benzo[B]naphtho[2,3-D]furans and 11-aryl-benzo[B]naphtho[2,3-D]thiophenes useful in the treatment of insulin resistance and hyperglycemia” (American Home Products Corporation, priority 1999, dated 2000).
pIC50: −log10 of the molar value.

Legend:
[1] = tested on: rat hepatic microsomal PTPases; conditions: PTPase activity, compound at 50 μM
[2] = biological target: T1, Human recombinant PTP1B (Homo sapiens, UniProt P18031); type: biochemical; conditions: read-out: IC50
T1 construct: made in house
T1 sequence (P18031 1-435): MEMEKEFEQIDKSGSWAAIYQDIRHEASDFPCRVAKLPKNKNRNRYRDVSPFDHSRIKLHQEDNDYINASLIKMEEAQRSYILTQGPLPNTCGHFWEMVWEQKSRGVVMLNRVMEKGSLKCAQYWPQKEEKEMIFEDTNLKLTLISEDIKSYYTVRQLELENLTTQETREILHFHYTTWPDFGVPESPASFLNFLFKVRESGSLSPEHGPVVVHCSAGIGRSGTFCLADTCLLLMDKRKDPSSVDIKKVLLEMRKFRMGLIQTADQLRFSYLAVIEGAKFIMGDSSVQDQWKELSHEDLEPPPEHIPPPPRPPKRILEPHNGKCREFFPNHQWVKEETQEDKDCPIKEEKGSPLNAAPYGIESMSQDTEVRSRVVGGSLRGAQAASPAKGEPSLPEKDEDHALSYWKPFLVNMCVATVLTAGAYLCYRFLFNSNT

| % Change from Control [1] [%] | pIC50 [2] | SMILES |
| --- | --- | --- |
| -18.89 | – | O=C(O)COc1ccc(-c2c3ccc(OCC(=O)O)cc3cc3sc4ccccc4c23)cc1 [Example 76, [11-(4-Carboxymethoxy-phenyl)-benzo[b]naphtho[2.3-d]thiophen-8-yloxy]-acetic acid] |
| -74.87 | – | O=C(O)COc1c(Br)cc(-c2c3c(c(Br)c4ccccc24)S(=O)(=O)c2ccccc2-3)cc1Br [Example 186] |
| -8.92 | – | COc1ccc(-c2c3ccccc3cc3sc4ccccc4c23)cc1 [Example 23, 11-(4-Methoxy-phenyl)-benzo[b]naphtho[2,3-d]thiophene] |
| -80.42 | – | O=C(O)COc1c(Br)cc(-c2c3ccccc3c(Br)c3oc4ccccc4c23)c(O)c1Br [Example 217] |
| -98.45 | – | O=C(O)COc1c2ccccc2c(-c2cc(Br)c(O[C@H](Cc3ccccc3)C(=O)O)c(Br)c2)c2c1sc1ccccc12 [Example 185] |
| -36.82 | – | Oc1c(Br)cc(-c2c3ccccc3c(Br)c3oc4ccccc4c23)c(O)c1Br [Example 211, 2,6-Dibromo-4-(6-bromo-benzo[b]naphtho[2,3-d]furan-11-yl)-3-hydroxy-phenol] |
| -26.86 | – | Oc1ccc(-c2c3ccc(O)cc3cc3sc4ccccc4c23)cc1 [Example 20, 11-(4-Hydroxy-phenyl)-benzo[b]naphtho[2,3-d]thiophen-8-ol] |
| -66.60 | – | O=C(O)[C@@H](CCN1C(=O)c2ccccc2C1=O)Oc1c(Br)cc(-c2c3ccccc3c(Br)c3sc4ccccc4c23)cc1Br [Example 147, (R)-2-[2,6-Dibromo-4-(6-bromo-benzo[b]naphtho[2,3-d]thiophen-11-yl)-phenoxy]-4-(1,3-dioxo-1,3-dihydro-isoindol-2-yl)-butyric acid] |
| -54.82 | – | Oc1c(Br)cc(-c2c3ccccc3c(C(F)(F)F)c3sc4ccccc4c23)cc1Br [Example 61, 2,6-Dibromo-4-(6-trifluoromethyl-benzo[b]naphtho[2,3-d]thiophen-11-yl)-phenol] |
| -38.31 | – | Cc1cc(-c2c3ccccc3c(C)c3sc4ccccc4c23)cc(C)c1O [Example 25, 2,6-Dimethyl-4-(6-methyl-benzo[b]naphtho[2,3-d]thiophen-11-yl)-phenol] |
| -73.91 | – | O=C(O)COc1ccc(-c2c3ccccc3cc3sc4ccccc4c23)cc1 [Example 84, [4-Benzo[b]naphtho[2,3-d]thiophen-11-yl-phenoxy]-acetic acid] |
| -58.12 | – | N#Cc1cc(-c2c3ccccc3cc3sc4ccccc4c23)cc(C#N)c1O [Example 32, 5-Benzo[b]naphtho[2,3-d]thiophen-11-yl-2-hydroxy-isophthalonitrile] |
| -70.32 | – | O=P(O)(O)C(CCc1ccccc1)Oc1c(Br)cc(-c2c3ccccc3c(Br)c3sc4ccccc4c23)cc1Br (stereo not shown) [Example 164] |
| -67.03 | – | N#Cc1c2ccccc2c(-c2cc(Br)c(OCC(=O)O)c(Br)c2)c2c1sc1ccccc12 [Example 88] |
| -57.89 | – | O=C(O)COc1c(I)cc(-c2c3ccccc3cc3sc4ccccc4c23)cc1I [Example 83, (4-Benzo[b]naphtho[2,3-d]thiophen-11-yl-2,6-diiodo-phenoxy)-acetic acid] |
| -8.68 | – | Oc1c(I)cc(-c2c3ccccc3cc3sc4ccccc4c23)cc1I [Example 26, 4-(Benzo[b]naphtho[2,3-d]thiophen-11-yl)-2,6-diiodo-phenol] |
| -58.35 | – | O=C(O)COc1ccc(-c2c3ccccc3c(Br)c3sc4ccccc4c23)cc1OCC(=O)O [Example 93] |
| -21.61 | – | O=C(O)COc1ccc(-c2c3ccccc3cc3sc4cc(OCC(=O)O)ccc4c23)cc1 [Example 74, [11-(4-Carboxymethoxy-phenyl)-benzo[b]naphtho[2,3-d]thiophen-3-yloxy]-acetic acid] |
| 3.16 | – | COc1c(C)cc(-c2c3ccccc3c(C)c3sc4ccccc4c23)cc1C [Example 24, 11-(4-Methoxy-3,5-dimethyl-phenyl)-6-methyl-benzo[b]naphtho[2,3-d]thiophene] |
| -38.40 | – | O=P(O)(O)COc1ccc(-c2c3ccccc3cc3sc4ccccc4c23)cc1 [Example 163, [4-(Benzo[b]naphtho[2,3-d]thiophen-11-yl)-phenoxymethyl]-phosphonic acid] |
| -75.45 | – | O=C(O)COc1cc(Br)c(-c2c3ccccc3c(Br)c3sc4ccccc4c23)cc1OCC(=O)O [Example 95] |

| % Change from Control [1] [%] | pIC50 [2] | SMILES |
| --- | --- | --- |
| -34.19 | – | Oc1ccc(-c2c3ccccc3cc3sc4ccccc4c23)cc1 [Example 14, 4-Benzo[b]naphtho[2,3-d]thiophen-11-yl-phenol] |
| -16.83 | – | COc1c(Br)cc(-c2c3ccccc3c(Br)c3sc4ccccc4c23)cc1Br [Example 22] |
| -71.67 | – | O=C(O)COc1ccc(-c2c3ccccc3cc3sc4ccccc4c23)cc1I [Example 85, (4-Benzo[b]naphtho[2,3-d]thiophen-11-yl-2-iodo-phenoxy)-acetic acid] |
| -43.68 | – | Oc1ccc(-c2c3ccccc3cc3sc4cc(O)ccc4c23)cc1 [Example 15, 11-(4-Hydroxy-phenyl)-benzo[b]naphtho[2,3-d]thiophen-3-ol] |
| -54.40 | – | O=C(O)COc1ccc(-c2c3ccccc3cc3oc4ccccc4c23)cc1 [Example 213, 4-(Benzo[b]naphtho[2,3-d]furan-11-yl-phenoxy)-acetic acid] |
| – | 5.70 | Oc1c(-c2ccccc2)cc(-c2c3ccccc3cc3sc4ccccc4c23)cc1-c1ccccc1 [Example 190, 5'-Benzo[b]naphtho[2,3-d]thiophen-11-yl-[1,1':3', 1.increment.]terphenyl-2'-ol] |
| -69.35 | – | Cc1cc(-c2c3ccccc3c(C)c3sc4ccccc4c23)cc(C)c1OCC(=O)O [Example 86, {2,6-Dimethyl-4-[6-methyl-(benzo[b]naphtho[2,3-d]thiophen-11-yl)]-phenoxy}-acetic acid] |
| -69.20 | – | O=C1NC(=O)C(Oc2c(Br)cc(-c3c4ccccc4c(Br)c4sc5ccccc5c34)cc2Br)S1 (stereo not shown) [Example 175, 5-[2,6-Dibromo-4-(6-bromo-benzo[b]naphtho[2,3-d]thiophen-11-yl)-phenoxy]-thiazolidinedione-2.4-dione] |
| -75.75 | – | O=C(O)COc1c(F)ccc(-c2c3ccccc3c(Br)c3sc4ccccc4c23)c1F [Example 201, [3-(6-Bromo-benzo[b]naphtho[2,3-d]thiophen-11-yl)-2.6-difluoro-phenoxy]-acetic acid] |
| 0.39 | – | BrC[C@@H](Cc1ccccc1)Oc1c(Br)cc(-c2c3ccccc3c(Br)c3sc4ccccc4c23)cc1Br [Example 174, (R)-6-Bromo-11-[3,5-dibromo-4-(1-bromomethyl-2-phenyl-ethoxy)-phenyl]-benzo[b]naphtho[2,3-d]thiophene] |
| -16.99 | – | O=C(NO)[C@@H](Cc1ccccc1)Oc1c(Br)cc(-c2c3ccccc3c(Br)c3sc4ccccc4c23)cc1Br [Example 167] |
| -57.64 | – | O=C(O)COc1c(Br)cc(-c2c3ccccc3c(Br)c3c2c2ccccc2[s+]3[O-])cc1Br (stereo not shown) [Example 187] |
| -75.29 | – | O=C(O)COc1ccc2c(c1)sc1cc3ccccc3c(-c3ccc(O[C@H](Cc4ccccc4)C(=O)O)cc3)c12 [Example 119] |
| -3.40 | – | CC(=O)Oc1ccc(-c2c3ccccc3cc3sc4ccccc4c23)cc1 [Example 34, 4-(Benzo[b]naphtho[2,3-d]thiophen-11-yl-phenol)acetate ester] |
| -79.04 | – | O=C(O)COc1cccc(-c2c3ccccc3c(Br)c3sc4ccccc4c23)c1 [Example 90, [3-(6-Bromo-benzo[b]naphtho[2,3-d]thiophen-11-yl)-phenoxyl]-acetic acid] |
| -95.80 | – | O=C(O)COc1cc(-c2c3ccccc3c(Br)c3sc4ccccc4c23)cc(Br)c1OCC(=O)O [Example 94] |
| -59.82 | – | O=C(O)COc1ccc2c(c1)sc1cc3ccccc3c(-c3ccc(O[C@H](CCN4C(=O)c5ccccc5C4=O)C(=O)O)cc3)c12 [Example 149] |
| 1.00 | – | COc1c(C#N)cc(-c2c3ccccc3cc3sc4ccccc4c23)cc1C#N [Example 30, 5-Benzo[b]naphtho[2,3-d]thiophen-11-yl-2-methoxy-isophthalonitrile] |
| -35.78 | – | Oc1ccc(-c2c3ccccc3cc3sc4ccccc4c23)cc1I [Example 27, 4-(Benzo[b]naphtho[2,3-d]thiophen-11-yl)-2-iodo-phenol] |
| -3.50 | – | CS(=O)(=O)Oc1ccc(-c2c3ccccc3c(I)c3sc4ccccc4c23)cc1 [Example 47, Methanesulfonic acid 4-(6-Iodo-benzo[b]naphtho[2,3-d]thiophen-11-yl)-phenylester] |
| 1.03 | – | COc1ccc(C(=O)c2c(Cc3ccccc3)sc3ccccc23)cc1 [Example 7, (2-Benzyl-benzo[b]thiophen-3-yl)-(4-methoxy-phenyl)-methanone] |

| SMILES | % Change from Control [1] [%] | pIC50 [2] |
| --- | --- | --- |
| CCOP(=O)(OCC)C(CCc1ccccc1)Oc1c(Br)cc(-c2c3ccccc3c(Br)c3sc4ccccc4c23)cc1Br (stereo not shown) [Example 161, {1-2,6-Dibromo-4-(6-bromo-benzo[b]naphtho[2,3-d]thiophen-11-yl)-phenoxyl-3-phenyl-propyl}-phosphonic acid, diethyl ester] | -8.03 | – |
